The target in one data set is T1, RET^V804M (Homo sapiens, UniProt P07949, V804M).
T1 construct: GST-RET^V804M (658-1114 aa, final concentration of 0.02 nM)
T1 sequence (P07949 658-1114 V804M): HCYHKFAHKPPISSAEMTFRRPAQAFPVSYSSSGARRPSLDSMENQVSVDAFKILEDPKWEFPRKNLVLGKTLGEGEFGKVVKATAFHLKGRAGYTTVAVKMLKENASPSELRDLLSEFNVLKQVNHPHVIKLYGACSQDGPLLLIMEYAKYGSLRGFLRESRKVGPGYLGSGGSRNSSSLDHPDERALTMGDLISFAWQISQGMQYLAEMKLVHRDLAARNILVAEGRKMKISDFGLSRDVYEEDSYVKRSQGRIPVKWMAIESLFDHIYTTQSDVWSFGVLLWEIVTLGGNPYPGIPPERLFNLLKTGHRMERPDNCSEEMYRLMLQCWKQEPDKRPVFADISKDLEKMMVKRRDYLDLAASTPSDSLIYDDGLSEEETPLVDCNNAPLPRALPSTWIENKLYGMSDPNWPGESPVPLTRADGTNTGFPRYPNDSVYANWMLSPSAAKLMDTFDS
The experiment in a line: In vitro enzymatic activity assay on RET^V804M (HTRF). In kind it is biochemical. The settings on record: GST-RET^V804M (658-1114 aa) 0.02 nM, ATP 1.5 μM.

Another data set has as its target VEGFR2 (Homo sapiens, UniProt P35968). The experiment in a line: In vitro enzymatic activity assay on VEGFR2 (HTRF). In kind it is biochemical. The conditions noted are these: GST-VEGFR2 0.1 nM, ATP 2.5 μM. Here is the method: 3. n Vitro Enzymatic Activity Assay for Compounds on VEGFR2
The compounds were diluted 5-fold with 100% DMSO starting from 1 mM (7 concentrations in total), and 2 μL of each concentration was added to 48 μL of reaction buffer (50 mM HEPES pH 7.5, 0.1 mM Na3VO4, 5 mM MgCl2, 1 mM MnCl2, 1 mM DTT, 0.001% Tween 20, and 100 μg/ml BSA) for dilution and mixing. 2.5 μL of compounds and 5 μL of GST-VEGFR2 (final concentration of 0.1 nM) were added to a 384-well plate (OptiPlate-384, purchased from PerkinElmer), the mixture was mixed by centrifugation, and 2.5 μL of ATP (final concentration of 2.5 μM) and TK Peptide Substrate mixture (final concentration of 1 μM, purchased from Cisbio) were added to start the reaction, with a total reaction volume of 10 μL. The 384-well plate was placed in an incubator and reacted at 23° C. for 1.5 h before the reaction was stopped by the addition of 5 μL of TK Antibody (purchased from Cisbio) and 5 μL of Streptavidin-XL665 (purchased from Cisbio). After further incubation in the incubator for 1 h. fluorescence values (excitation at 320 nm, detecting emitted light at 665 nm and 620 nm, and a ratio of the two as an enzyme activity signal) were read on Envision (purchased from PerkinElmer). The enzymatic activity signal of VEGFR2 was measured at 7 concentrations for each compound and the data were calculated using GraphPad Prism software to obtain the IC50 value for the compound.

For another data set, the target named is T2, RET^WT (Homo sapiens, UniProt P07949).
T2 construct: GST-RET^WT (658-1114 aa, final concentration of 0.5 nM)
T2 sequence (P07949 658-1114): T1 sequence (P07949 658-1114 V804M) with M147V
The experiment in a line: In vitro enzymatic activity assay on RET^WT (HTRF). The conditions noted are these: GST-RET^WT (658-1114 aa) 0.5 nM, ATP 25 μM. In kind it is biochemical. Here is the method: 1. In Vitro Enzymatic Activity Assay for Compounds on RET^WT
The compounds were diluted 5-fold with 100% DMSO starting from 0.2 mM (7 concentrations in total), and 2 μL of each concentration was added to 48 μL of reaction buffer (50 mM HEPES pH7.5, 0.1 mM Na3VO4, 5 mM MgCl2. 1 mM DTT, 0.001% Tween 20, and 100 μg/ml BSA) for dilution and mixing.
The 384-well plate was placed in an incubator and reacted at 23° C. for 2 h before the reaction was stopped by the addition of 5 μL of TK Antibody (purchased from Cisbio) and 5 μL of Streptavidin-XL665 (purchased from Cisbio). […] The enzymatic activity signal of RET^WT was measured at 7 concentrations for each compound and the data were calculated using GraphPad Prism software to obtain the IC50 value for the compound.

A further data set concerns TT cells. The experiment in a line: TT cell proliferation activity (Cell-Titer Glo). Type of data set: cell-based. The conditions noted are these: TT human thyroid carcinoma cells, 120 h. On the procedure:
4. Determination of TT Cell Proliferation Activity of Compounds
TT cells, a human thyroid carcinoma cell line, were cultured in Ham's F-12K medium supplemented with 15% fetal bovine serum (FBS, purchased from Biological Industries, BI) and 1% penicillin/streptomycin double antibody (P/S, purchased from Life Technology) under conditions of 37° C. and 5% CO2. TT cells were plated in a 96-well plate (#3917 purchased from Corning) at a concentration of 5000 cells/195 μL/well the day before compound was detected. The compounds were diluted 3-fold with 100% DMSO starting from 10 mM (10 concentrations in total) after 24 h, and 2 μL of each concentration was diluted in 48 μL of Ham's F-12K medium. 5 μL of each diluted compound was added to the plated Cell suspension, the compound and cells were co-incubated in a cell incubator for 120 h (5 days), after the medium was aspirated. 25 μL of Cell-Titer Glo (G7570, purchased from Promega) reagent was added and re-incubated for 5-10 min. Fluorescence value was then read on Envision and the data were calculated using GraphPad Prism software to obtain IC50 values for inhibition of cell proliferation by the compounds.

Data set [1] is described as follows: Pharmacokinetic data of compounds in male SD rats. Type of data set: in vivo. The settings on record: rat, po, intragastric, 5 mg/kg, suspension MC 0.5%, plasma. Here is the method:
6. Pharmacokinetic Data of Compounds
Male SD rats (Beijing Vital River Laboratory Animal Technology Co., Ltd) were divided into groups. 3 in each group, received intragastric administration with the suspension of the test sample (5 mg/kg, suspensions MC 0.5%), respectively. Animals were fasted overnight prior to the experiment from 10 h before dosing to 4 h after dosing. Blood was collected 0.25, 0.5, 1, 2, 4, 6, 8, and 24 h after administration, respectively. After isoflurane anesthesia using a small animal anesthesia machine, 0.3 mL of whole blood samples was taken through the fundus venous plexus, placed in a heparin anticoagulant tube, and were centrifuged at 4° C. 4000 rpm for 5 min plasma was transferred to the centrifuge tube, and stored at −80° C. until analysis. Samples in the plasma were extracted using protein precipitation and the extracts were analyzed by LC/MS.

Changes are numbered by the printed parent chain.

VEGFR2, sequence (P35968 20-1356): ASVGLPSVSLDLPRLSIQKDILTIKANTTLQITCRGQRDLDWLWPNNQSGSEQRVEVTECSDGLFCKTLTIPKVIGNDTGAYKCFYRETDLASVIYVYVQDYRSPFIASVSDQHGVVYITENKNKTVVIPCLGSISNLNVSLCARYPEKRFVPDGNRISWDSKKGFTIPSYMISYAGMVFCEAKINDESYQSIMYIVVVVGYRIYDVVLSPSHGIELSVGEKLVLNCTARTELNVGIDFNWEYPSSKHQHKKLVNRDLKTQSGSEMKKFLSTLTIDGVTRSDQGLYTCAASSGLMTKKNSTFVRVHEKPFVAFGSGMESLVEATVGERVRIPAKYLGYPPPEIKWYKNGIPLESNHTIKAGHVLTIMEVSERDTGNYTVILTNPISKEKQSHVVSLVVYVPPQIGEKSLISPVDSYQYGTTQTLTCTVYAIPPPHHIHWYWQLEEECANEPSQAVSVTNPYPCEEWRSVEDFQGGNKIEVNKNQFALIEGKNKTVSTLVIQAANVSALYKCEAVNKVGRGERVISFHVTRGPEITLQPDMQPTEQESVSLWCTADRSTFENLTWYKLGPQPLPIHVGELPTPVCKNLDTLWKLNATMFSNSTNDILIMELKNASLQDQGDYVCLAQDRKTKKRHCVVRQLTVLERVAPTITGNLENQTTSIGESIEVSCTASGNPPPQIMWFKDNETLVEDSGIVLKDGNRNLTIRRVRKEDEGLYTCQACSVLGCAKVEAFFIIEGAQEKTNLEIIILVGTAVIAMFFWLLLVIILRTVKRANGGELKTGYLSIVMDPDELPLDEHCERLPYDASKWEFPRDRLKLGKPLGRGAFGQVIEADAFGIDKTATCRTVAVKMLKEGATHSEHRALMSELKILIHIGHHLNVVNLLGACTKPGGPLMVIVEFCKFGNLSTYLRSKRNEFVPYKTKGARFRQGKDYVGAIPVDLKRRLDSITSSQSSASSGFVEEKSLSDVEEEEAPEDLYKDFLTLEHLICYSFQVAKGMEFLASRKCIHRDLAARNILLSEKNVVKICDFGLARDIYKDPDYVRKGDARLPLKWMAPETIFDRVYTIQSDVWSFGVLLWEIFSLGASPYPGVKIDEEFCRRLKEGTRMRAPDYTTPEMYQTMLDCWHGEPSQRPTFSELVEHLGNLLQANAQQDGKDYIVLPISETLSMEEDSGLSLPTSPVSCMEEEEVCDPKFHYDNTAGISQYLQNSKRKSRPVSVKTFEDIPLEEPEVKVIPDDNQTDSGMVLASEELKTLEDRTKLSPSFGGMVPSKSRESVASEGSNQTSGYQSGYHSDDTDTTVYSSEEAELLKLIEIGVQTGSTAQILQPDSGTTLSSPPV

For `CS(=O)(=O)c1ccc(CN2C3CC2CN(c2ccc(-c4cc(-c5cnn(C(F)F)c5)cn5ncc(C#N)c45)cn2)C3)nc1` [Example 78, 6-(1-(difluoromethyl)-1Hpyrazol-4-yl)-4-(6-(6-((5-(methylsulfonyl)pyridin-2-yl)methyl)-3,6-diazabicyclo[3.1.1]heptan-3-yl)pyridine-3-yl)pyrazolo[1,5-a]pyridine-3-carbonitrile], the IC50 on RET^V804M came out at 1.04 nM; at VEGFR2 it was 10.4 nM; at RET^WT, 0.387 nM; with TT cells, 28.2 nM.

With `CSCCN1CCN(c2ccc(-c3cc(-c4cnn(C)c4)cn4ncc(C#N)c34)cn2)CC1` [Example 21, 6-(1-methyl-1Hpyrazol-4-yl)-4-(6-(4-(2-(methylthio)ethyl)piperazin-1-yl)pyridin-3-yl)pyrazolo[1,5-a]pyridine-3-carbonitrile], the half-inhibitory concentration (IC50) against VEGFR2 was 11.9 nM; with TT cells, 27.9 nM.

With `COc1ccc(CN2CCN(c3ccc(-c4cc(N5CC(F)(F)C5)cn5ncc(C#N)c45)cn3)CC2)cn1` [Example 26, 6-(3,3-difluoroazetidin-1-yl)-4-(6-(4-((6-methoxypyridin-3-yl)methyl)piperazin-1-yl)pyridin-3-yl)pyrazolo[1,5-a]pyridine-3-carbonitrile], the 50% inhibitory concentration (IC50) against VEGFR2 turned out to be 95.5 nM. Also, in data set [1], the AUC(0-inf) was found to be 45000 ng·h/mL, the concentration peaked (Cmax) at 6000 ng/mL, the Tmax worked out at 1.75 h and the half-life was 4.9 h. Also, on RET^WT, half-maximal inhibition (IC50) was put at 0.422 nM.

Take `Cn1cc(-c2cc(-c3ccc(N4CC5CC(C4)N5Cc4ccccc4S(C)(=O)=O)nc3)c3c(C#N)cnn3c2)cn1` [Example 43, 6-(1-methyl-1Hpyrazol-4-yl)-4-(6-(6-(2-(methylsulfonyl)benzyl)-3,6-diazabicyclo[3.1.1]heptan-3-yl)pyridin-3-yl)pyrazolo[1,5a]pyridine-3-carbonitrile]: the 50% inhibitory concentration (IC50) was 0.507 nM against RET^V804M, 13.4 nM against VEGFR2, 0.132 nM at RET^WT and 16.4 nM in the data set with TT cells.

For `CS(=O)(=O)c1ccccc1CN1C2CC1CN(c1ccc(-c3cc(N4CC(F)(F)C4)cn4ncc(C#N)c34)cn1)C2` [Example 67, 6-(3,3-difluoroazetidin-1-yl)-4-(6-(6-(2-(methylsulfonyl)benzyl)-3,6-diazabicyclo [3.1.1]heptan-3-yl)pyridin-3-yl)pyrazolo[1,5-a]pyridine-3-carbonitrile], the IC50 on RET^V804M is 3.97 nM; at VEGFR2 it was 80.5 nM; against RET^WT, 0.465 nM.

In the case of `COc1ccc(CN2C3CC2CN(c2ccc(-c4cc(N5CC(F)(F)C5)cn5ncc(C#N)c45)cn2)C3)nc1` [Example 46, 6-(3,3-difluoroazetidin-1-yl)-4-(6-(6-((5-methoxypyridin-2-yl)methyl)-3,6-diazabicyclo [3.1.1]heptan-3-yl)pyridin-3-yl) pyrazolo[1,5-a]pyridine-3-carbonitrile], the IC50 against VEGFR2 was found to be 17.2 nM; against RET^WT it was 0.159 nM; in the data set with TT cells, 37.6 nM.

Take `COc1ccc(CN2C3CC2CN(c2cnc(-c4cc(-c5cnn(C)c5)cn5ncc(C#N)c45)cn2)C3)cn1` [Example 3, 4-(5-(6-((6-methoxypyridin-3-yl)methyl)-3,6-diazabicyclo[3.1.1]heptan-3-yl)pyrazin-2-yl)-6-(1-methyl-1Hpyrazol-4-yl) pyrazolo[1,5-a]pyridine-3-carbonitride]: the 50% inhibitory concentration (IC50) on VEGFR2 came out at 3.01 nM; in the data set with TT cells, 1.01 nM.

Regarding `Cn1cc(-c2cc(-c3cnc(N4CCN(Cc5ccc(S(C)(=O)=O)cc5)CC4)cn3)c3c(C#N)cnn3c2)cn1` [Example 42, 6-(1-methyl-1Hpyrazol-4-yl)-4-(5-(4-(4-(methylsulfonyl)benzyl)piperazin-1-yl)pyrazin-2-yl)pyrazolo[1,5-a]pyridine-3-carbonitrile], the IC50 against VEGFR2 came out at 42.5 nM; against RET^WT, 0.642 nM; in the data set with TT cells it was 47.9 nM.

For the compound `CS(=O)(=O)c1ccc(CN2C3CC2CN(c2ccc(-c4cc(-c5cnn(C(F)(F)F)c5)cn5ncc(C#N)c45)cn2)C3)cc1` [Example 84, 4-(6-(6-(4-(methylsulfonyl)benzyl)-3,64-diazabicyclo[3.1.1]heptan-3-yl)pyridin-3-yl)-6-(1-(trifluoromethyl)-1Hpyrazol-4-yl) pyrazolo[1,5-a] pyridine-3-carbonitrile], at VEGFR2, half-maximal inhibition (IC50) required 13.3 nM. Also, in data set [1], the AUC(0-inf) is 27300 ng·h/mL, the highest level (Cmax) was 3090 ng/mL, the Tmax amounted to 2 h and the half-life was 2.78 h. Besides, it took 0.309 nM to reach half-maximal inhibition against RET^WT (IC50).

`C=CC(=O)N1CCN(c2ccc(-c3cc(-c4cnn(C)c4)cn4ncc(C#N)c34)cn2)CC1` [Example 1, 4-(6-(4-acryloylpiperazin-1-yl)pyridin-3-yl)-6-(1-methyl-1Hpyrazol-4-yl)pyrazolo[1,5-a]pyridine-3-carbonitrile]: the figures for the 50% inhibitory concentration (IC50) against RET^V804M, on VEGFR2 and against RET^WT were 1.21 nM, 4.49 nM and 0.352 nM, respectively.

Consider `CS(=O)(=O)c1ccc(CN2C3CC2CN(c2ccc(-c4cc(N5CC(C#N)C5)cn5ncc(C#N)c45)cn2)C3)cc1` [Example 35, 6-(3-cyanoazetidin-1-yl)-4-(6-(6-(4-(methylsulfonyl)benzyl)-3,6-diazabicyclo[3.1.1]heptan-3-yl)pyridin-3-yl)pyrazolo[1,5-a]pyridine-3-carbonitrile], for which the results for the IC50 against RET^V804M, against VEGFR2 and on RET^WT were 1.47 nM, 9.6 nM and 0.172 nM, respectively.
